Results: patent US5393744A, “Glucosyl phosphotriesters of thymidine” (Institut Pasteur, priority 1988, dated 1995)

Tests used:
human T lymphocytes = experiment: Cytotoxicity of the products for human T lymphocytes; assay type: cell-based
Method: (§1) Each product was dissolved in DMSO at a concentration of 10^-3 M (stock solution), then in the culture medium immediately before use. The solution thus obtained was sterilized by filtration on a 0.22μ Millipore, then successive dilutions were made in the culture medium.
The cultures of human T lymphocytes are maintained in the medium RPMI 1640 containing 10% fetal calf serum (Seromeal), 1% of glummine (Gibco), 1% of antibiotics (PSN, Gibco), 10% of interleukin II (Biotest), 2 μg/ml of polybrene (Sigma) and a 1/2500 dilution of α-human semm-interferon. This medium is called complete medium.
The cytotoxicity of the products was studied on human T lymphocytes obtained from peripheral blood of a sero-negative donor. Prior to the treatment, these lymphocytes are stimulated by phytohemagglutinin p (pHAp) (Difco) for 3 days.
a) Study of the cytotoxicity of the products for the T cells.
10^6 lymphocytes stimulated by pHAp were treated for 10 days by increasing doses of the product (10^-5 M; 5×10^-6 M; 10^-6 M). The product was added at each cell passage carried out every 3 or 4 days. At each passage, the cells were counted after staining with trypan blue then resuspended at 10^6 cells per ml in the complete medium containing or not increasing doses of the product. This experiment was carried out in a plate with 24 wells (Munc).

HIV-1 virus = experiment: Effect of the products on the infectious potency of the HIV-1 virus in human T lymphocytes (reverse transcriptase activity); assay type: cell-based, HIV-1 virus (LAV strain); settings: treatment after viral absorption (FIG. 2)
Method: as §1
The cultures of human T lymphocytes are maintained in the medium RPMI 1640 containing 10% fetal calf serum (Seromeal), 1% of glummine (Gibco), 1% of antibiotics (PSN, Gibco), 10% of interleukin II (Biotest), 2 μg/ml of polybrene (Sigma) and a 1/2500 dilution of α-human semm-interferon. This medium is called complete medium. […]
Human lymphocytes stimulated beforehand by means of pHAp were infected by the HIV-1 virus (reverse transcriptase activity: 5000 cmp/10^6 cells). […] The viral production was monitored at each passage (and this for 13 days) by measuring the reverse transcriptase activity present in 1 ml of culture supernatant. […]
The production of the HIV-1 virus by human T cells treated or not by each product was regularly monitored by measuring the reverse transcriptase activity present in 1 ml of culture supernatant. […] After 1 hour of incubation of 37° C., the acid-insoluble products are precipitated by 20% trichloroacetic acid, filtered on 0.45μ Millipore, then the β radioactivity contained in these reaction products is measured with the aid of a Kontron scintillation counter.

CCCCCCCCCCCCCCCCOP(=O)(OC[C@H]1OC(O)[C@H](O)[C@@H](O)[C@@H]1O)OC[C@H]1O[C@@H](n2cc(C)c(=O)[nH]c2=O)C[C@@H]1N=[N+]=[N-] (stereo partly shown) [compound 6651, 6-glucosyl hexadecyl 5'-(3'-azido) thymidinyl phosphate]
effect on the growth of T cells (human T lymphocytes; treatment of 10 days, at the doses used (FIG. 1)): without significant effect on the growth of T cells | inhibition of the multiplication of the virus (HIV-1 virus; 10^-5 M): total inhibition of the multiplication of the virus

Cc1cn([C@H]2CC[C@@H](COP(=O)(O)OC[C@H]3OC(O)[C@H](O)[C@@H](O)[C@@H]3O)O2)c(=O)[nH]c1=O (stereo partly shown) [compound 6714, 6-glucosyl 5'-(3'-deoxy)-thymidinyl phosphate]
effect on cell multiplication (human T lymphocytes; same doses, 3 days): no effect is observed on cell multiplication | inhibition of the multiplication of the virus (HIV-1 virus; dose proportional): partial inhibition proportional to the dose of the product used
